| SMILES | melting point |
| --- | --- |
| CC(C)(C)C(C)(C)Nc1nc(Cl)nc(NC(C)(C)C(C)(C)C)n1 | 129 to 131 °C |
| CC(C)(C)OC(=O)N1CCn2c(Cl)c(-c3ccccc3)c(C(N)=O)c2C1 | 178 to 180 °C |
| Nc1ccc(N2CCN(c3ccccn3)CC2)cc1 | 119 to 120 °C |
| COc1cc(C(=O)OCc2ccc3nc(N)nc(N)c3c2)cc(OC)c1OC | 223 to 227 °C |
| c1cc(OCC2CO2)c2cn[nH]c2c1 (configuration not stated) | 60 °C |
| COc1ccc2[nH]c(SCc3ncc(C)c(OC)c3C)nc2c1 | 120 to 121 °C |
| CC(=O)NC(=Cc1cccnc1)C(=O)O | 191 to 192 °C |
| CCOC(=O)c1c(C(=O)c2nc(OC)cc(OC)n2)ccnc1Br | 98 to 99 °C |
| CCC(C(=O)c1ccc(Cl)cc1)n1ncn(-c2ccc(N3CCN(c4cc(C)cc(C)n4)CC3)nc2)c1=O (configuration not stated) | 113 °C |
| O=C(O)C(=O)c1ccc(OCCOc2ccc3ccccc3c2)c(F)c1 | 168 to 169 °C |
| Cc1ccc(N2CCN(CCCc3[nH]nc4c3CCC4)CC2)cc1 | 101 to 102 °C |
| C=CC(=O)NCC(C(=O)c1ccccc1)C(=O)c1ccccc1 | 146 to 148 °C |
| CCCCC(=O)NC(C#N)C(=O)OCC (configuration not stated) | 88 °C |
| CCCCCCCCCCCCC1CC(=C(C#N)C#N)CCC1=C(C#N)C#N (configuration not stated) | 97 °C |
| COc1cc(C(=O)Nc2c(C)cc3cn(CC(F)(F)F)nc3c2C(=O)NC(C)C)n(-c2ncccc2Cl)n1 | 178 to 181 °C |
| CCOC=NC1=C(C#N)C(c2ccc(F)c(Cl)c2)c2ccc3ccccc3c2O1 (configuration not stated) | 146 to 148 °C |
| COc1ccc(-c2c(/C=C/C(=O)O)ccc3cc(OC)ccc23)cc1 | 248 to 249 °C |
| COc1ccc(C2=CC(O)CC2)cc1OC1CCCC1 (configuration not stated) | 105 to 107 °C |
| COc1nc(Cl)cnc1NS(=O)(=O)c1cccnc1-c1ccc(CC(C)C)cc1 | 156 to 157 °C |
| OC(CCc1cccnc1)COc1ccc2ccccc2c1 (configuration not stated) | 93 to 95 °C |
| CS(=O)(=O)c1ccc(-c2cc(C(N)=O)nn2-c2ccc(C(=O)O)cc2)cc1 | 292 to 293 °C |
| CCOc1nn(-c2ccc(C(F)(F)F)cn2)cc1CCCOc1nn(CC)cc1CC(=O)O | 108 to 109 °C |
| Cc1nc2c(O)cccc2n1C | 243 to 245 °C |
| C[C@@H]1Cc2cc(N3C[C@H](C(N)=O)OC3=O)ccc2N1C(=O)CO | 198 to 200 °C |

| SMILES | melting point |
| --- | --- |
| COc1ccc2c(c1)C(Cl)CC1C2C(O)CC2(C)C(O)CCC12 (configuration not stated) | 150 to 151 °C |
| CCNc1nc2ccc(CCc3nc4cc(C)ccn4c3Br)cc2o1 | 149 to 153 °C |
| O=CCOc1ccc(Cl)cc1 | 122 to 128 °C |
| CN1CCCC1c1ccc(Nc2cc(Br)cn(C)c2=O)nc1 (configuration not stated) | 143 to 145 °C |
| C1=c2cc3c(cc2Sc2ccccc21)=Cc1ccccc1S3 | 276 to 280 °C |
| O=C(c1ccc(OC(F)(F)F)cc1)N1CCc2cc(S(=O)(=O)N3CC(c4ccccc4)NC3=O)ccc21 (configuration not stated) | 180 to 182 °C |
| O=S(=O)(Nc1ccc2c(OCc3ccc(-c4ccc(Cl)c(Cl)c4)cc3F)cccc2c1)C(F)(F)F | 172 to 174 °C |
| COCOc1ccc(-c2ccc3c(c2)C(C)(C)CCC3(C)C)cc1-c1ccc(C(=O)O)cc1 | 137 to 140 °C |
| CC(=O)Oc1c(C)c(C)nc2ccccc12 | 93 to 94 °C |
| O=C(Nc1nc2ccccc2o1)C(Cc1ccc(F)cc1)c1ccc(F)cc1F (configuration not stated) | 178 °C |
| CCc1cc(C(=O)c2ccccc2Cl)c(-n2cnnc2CNC(=O)c2ccccc2)s1 | 140 to 142 °C |
| CCOC(=O)C1=C(C)NC(C)=C(C(=O)OC2CCCCC2)C1c1cccc([N+](=O)[O-])c1 (configuration not stated) | 135 °C |
| CCCCc1ccc(Oc2ccc(C#CC(C)N(O)C(N)=O)o2)cc1 (configuration not stated) | 116 to 118 °C |
| COc1cc2cnnc(N3CCCC(CO)C3)c2cc1OC (configuration not stated) | 162 to 165 °C |
| COc1ccc(S(=O)(=O)Nc2cccnc2Nc2ccccc2C)cc1 | 80 to 81 °C |
| Cc1nc2cnc3cccnc3c2n1CC(C)C | 110 to 111 °C |
| Cc1nnc2c(-c3cccc(C(F)(F)F)c3)cncn12 | 157 to 159 °C |
| NS(=O)(=O)c1cccc(-c2noc(-c3cnn4c(C(F)(F)F)cc(-c5cccc(C(F)(F)F)c5)nc34)n2)c1 | 251 °C |
| Nc1ccc2c(c1)C(=O)C2 | 92 to 93 °C |
| O=C1Nc2ccc(Br)cc2C(c2ccccc2)=NC1OC(=O)C(F)(F)F (configuration not stated) | 181 to 183 °C |
| CCc1cn(N=Cc2ccccc2)c(N)n1 | 164 to 167 °C |
| Cc1ccc(C)c(NC(=O)CN2CCN(c3ncccc3C#N)CC2)c1 | 106 to 108 °C |
| CC(NC(=O)Cc1cc(F)cc(F)c1)C(=O)NC1C(=O)NC(F)c2ccccc21 (configuration not stated) | 195 to 200 °C |
| CCOC(=O)c1ccc(N2CCN(C(=O)N(CC)CC)CC2)cc1 | 77 to 82 °C |

| SMILES | melting point |
| --- | --- |
| CCOC(=O)c1cc(=O)cc(-c2cccc([N+](=O)[O-])c2)o1 | 148 to 152 °C |
| CCNC(=O)Nc1ccc(C(O)(C(F)(F)F)C(F)(F)F)cc1C(=O)OCC | 144 to 146 °C |
| O=C(O)C1Cc2c(ncn2Cc2ccccc2)CN1C(=O)C(c1ccccc1)c1ccccc1 (configuration not stated) | 167 to 169 °C |
| O=C(CCl)Nc1ccc2c(c1NC(=O)c1ccco1)C(=O)c1ccccc1C2=O | 211 to 212 °C |
| CC1=CC(=O)C(C)=C2CC(C)(C)N=C12 | 107 to 109 °C |
| Cc1ccc(N2CCOCC2)c(N=C=S)c1 | 91 to 92 °C |
| O=C(Nc1ccccc1F)N1CCc2cc(S(=O)(=O)N3CCN(c4cccc(Cl)c4)CC3)ccc21 | 174 to 175 °C |
| O=C1c2cc(S(=O)(=O)N3CCCCC3)ccc2SC12CC2 | 156 to 157 °C |
| O=c1ccc(-c2c(-c3ccccc3)nn3ccccc23)nn1[C@@H]1CCCC[C@@H]1O (relative stereo) | 195 to 197 °C |
| O=C(Cc1c(-c2ccccc2)c2cc3c(cc2oc1=O)C(=O)OC3)Nc1ccc(F)cc1C(F)(F)F | 253 to 254 °C |
| N#CC1=C(Nc2cccc(Cl)c2)CCC1 | 111 to 112 °C |
| COc1cccc2c1CC(N(CCCc1c[nH]c3ccc(F)cc13)CC1CCC1)CO2 (configuration not stated) | 115 °C |
| O=[N+]([O-])c1c(NC2CC2)ncnc1N1CCc2ccccc2CC1 | 135 to 138 °C |
| CC(=O)[C@H]1CC[C@H]2[C@@H]3CCC4=C/C(=N/OC(=O)[C@@H](NC(=O)OC(C)(C)C)C(C)C)CC[C@]4(C)[C@H]3CC[C@]12C | 147 to 149 °C |
| O=C(CSCc1c[nH]c2ccccc12)N1CC=C(c2cccc(F)c2)CC1 | 130 to 131 °C |
| OCCNC(=S)NC(=Nc1ccccc1)c1ccccc1 | 144 to 145 °C |
| CCOC(=O)COc1ccc(-c2c(Cl)c(CN3C(=O)CCC3=O)nc3sc4c(c23)CCS(=O)(=O)C4)cc1 | 215 to 216 °C |
| O=c1c2c([nH]c3cn[nH]c13)CCCC2 | > 325 °C |
| COc1ccc2c(c1)C(=O)C(=O)C=C2 | 78 to 80 °C |
| Cc1csc2c1CCN(C)CC2c1ccccc1 (configuration not stated) | 40 °C |
| CNc1nc(OC)ccc1[N+](=O)[O-] | 152 to 153 °C |
| Nc1ccc(F)c2c1C(=O)c1ccccc1-2 | 205 to 206 °C |
| O=[N+]([O-])c1cc(Br)cc2c1[nH]c1ccc(Br)cc12 | 252 to 256 °C |
| COc1cc(Nc2c(C#N)cnc3ccc(/C=C/CCN4CCOCC4)cc23)c(Cl)cc1Cl | 95 to 96 °C |

Reference: a melting point compilation (Tetko et al.; mined from patent text by program, amines drawn as free bases though some values may be those of a salt)
